In article PMC8209957 (Cell, 2021):

Biological target: MEK1-C222 (Homo sapiens, UniProt Q02750, S222C/C277S/C376S)
Assay: differential scanning fluorimetry
Format: binding
Details: thermal shift with and without Mg2+; values only in figure

Nc1ncnc2c1ncn2[C@@H]1O[C@H](COP(=O)(O)OP(=O)(O)OP(O)(O)=S)[C@@H](O)[C@H]1O [ATPγS]
differential scanning fluorimetry: to form MEK1•ATP(±Mg) and MEK1•ATPγS(±Mg)
